In ChEMBL document CHEMBL4321836, “Discovery of BAY-298 and BAY-899: Tetrahydro-1,6-naphthyridine-Based, Potent, and Selective Antagonists of the Luteinizing Hormone Receptor Which Reduce Sex Hormone Levels in Vivo” (J Med Chem, 2019):
Activity calls are given as the source filed them. The calls are words filed in the database; no cut-off is given here.

Columns and labels:
Thyrotropin receptor = Thyrotropin receptor (Homo sapiens, UniProt P16473); experiment: Antagonist activity at human thyroid stimulating hormone receptor expressed in rat HTC133 cells assessed as reduction in agonist-induced cAMP production preincubated for 20 mins followed by agonist solution addition and measured after 60 mins by cell based TR-FRET assay; type: functional
[1] = target: Voltage-gated inwardly rectifying potassium channel KCNH2 (Homo sapiens, UniProt Q12809); experiment: Inhibition of human ERG expressed in HEK293 cells at holding potential -80 mV by whole-cell voltage-clamp method; type: cell-based
[2] = Chemical stability of the compound at pH 1 to 10 measured after 1 to 24 hrs by HPLC-UV method; type: physicochemical; settings: buffer
[3] = Efflux ratio of apparent permeability from basolateral to apical over apical to basolateral side in human Caco2 cells at 2 uM after 2 hrs by LC-MS/MS analysis; type: ADME, cell-based; settings: Caco-2
[4] = Clearance in rat liver microsomes at 1 uM measured after 2 to 60 mins in presence of glucose-6-phosphate by LC-MS/MS analysis; type: ADME, Microsome
[5] = Clearance in Han Wistar rat hepatocytes at 1 uM measured after 2 to 90 mins by LC-MS/MS analysis; type: ADME, cell-based, Hepatocyte
[6] = Maximum oral bioavailability in Han Wistar rat hepatocytes at 1 uM measured after 2 to 90 mins by LC-MS/MS analysis; type: ADME, Hepatocyte; settings: read-out: Fmax
Cytochrome P450 2C8 = Cytochrome P450 2C8 (Homo sapiens, UniProt P10632); experiment: Inhibition of CYP2C8 in human liver microsomes using amodiaquine as substrate by LC-MS/MS analysis; type: ADME
Cytochrome P450 2C9 = Cytochrome P450 2C9 (Homo sapiens, UniProt P11712); experiment: Inhibition of CYP2C9 in human liver microsomes using diclofenac as substrate by LC-MS/MS analysis; type: ADME
Cytochrome P450 3A4 = Cytochrome P450 3A4 (Homo sapiens, UniProt P08684); experiment: Inhibition of CYP3A4 in human liver microsomes using midazolam as substrate by LC-MS/MS analysis; type: ADME
[7] = Dose normalized AUC in Wistar rat at 0.5 mg/kg, iv after 2 to 72 hrs by LC-MS/MS analysis; type: ADME, organism-based; settings: in vivo
[8] = Dose normalized Cmax in Wistar rat at 0.5 mg/kg, iv after 2 to 72 hrs by LC-MS/MS analysis; type: ADME, organism-based; settings: in vivo
[9] = Volume of distribution at steady state in Wistar rat at 0.5 mg/kg, iv after 2 to 72 hrs by LC-MS/MS analysis; type: ADME, organism-based; settings: in vivo, read-out: Vdss
[10] = Dose normalized Cmax in Wistar rat at 2 mg/kg, po after 8 to 72 hrs by LC-MS/MS analysis; type: ADME, organism-based; settings: in vivo
[11] = Oral bioavailability in Wistar rat at 2 mg/kg after 8 to 72 hrs by LC-MS/MS analysis; type: ADME, organism-based; settings: in vivo
[12] = target: T1, Adenosine receptor A3 (Homo sapiens) (UniProt P0DMS8); experiment: Agonist activity at human A3 receptor expressed in CHO-K1 cells at 10 uM after 20 mins by HTRF assay relative to control; type: cell-based
T1 sequence (whole entry): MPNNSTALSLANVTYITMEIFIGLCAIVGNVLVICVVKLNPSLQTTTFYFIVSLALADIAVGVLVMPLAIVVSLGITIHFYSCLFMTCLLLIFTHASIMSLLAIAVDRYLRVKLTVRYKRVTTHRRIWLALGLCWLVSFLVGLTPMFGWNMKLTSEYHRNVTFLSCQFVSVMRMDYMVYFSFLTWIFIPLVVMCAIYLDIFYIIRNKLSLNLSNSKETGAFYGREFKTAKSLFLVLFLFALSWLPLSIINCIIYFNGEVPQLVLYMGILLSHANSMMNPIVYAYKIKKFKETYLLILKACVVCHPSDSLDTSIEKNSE

[13] = target: Beta-2 adrenergic receptor (Homo sapiens) (UniProt P07550); experiment: Agonist activity at human beta2 adrenergic receptor expressed in CHO-K1 cells at 10 uM after 30 mins HTRF assay relative to control; type: cell-based
[14] = target: Cannabinoid receptor 1 (Homo sapiens) (UniProt P21554); experiment: Agonist activity at human CB1 receptor expressed in CHO-K1 cells at 10 uM after 20 mins HTRF assay relative to control; type: cell-based
[15] = target: Cannabinoid receptor 1 (Homo sapiens) (UniProt P21554); experiment: Antagonist activity at human CB1 receptor expressed in CHO-K1 cells at 10 uM after 20 mins HTRF assay relative to control; type: cell-based; design: scale not given: the % may be the effect or the level left
[16] = target: D(2) dopamine receptor (Homo sapiens) (UniProt P14416); experiment: Agonist activity at human Dopamine D2L receptor expressed in CHO-K1 cells at 10 uM by Fluorimetric analysis relative to control; type: cell-based
[17] = target: D(2) dopamine receptor (Homo sapiens) (UniProt P14416); experiment: Antagonist activity at human Dopamine D2L receptor expressed in CHO-K1 cells at 10 uM by Fluorimetric analysis relative to control; type: cell-based; design: scale not given: the % may be the effect or the level left
[18] = target: Melanocortin receptor 4 (Homo sapiens) (UniProt P32245); experiment: Agonist activity at human MC4 receptor expressed in CHO-K1 cells at 10 uM after 30 mins by HTRF assay relative to control; type: cell-based
[19] = target: Melanocortin receptor 4 (Homo sapiens) (UniProt P32245); experiment: Antagonist activity at human MC4 receptor expressed in CHO-K1 cells at 10 uM after 30 mins by HTRF assay relative to control; type: cell-based; design: scale not given: the % may be the effect or the level left
[20] = target: T2, Muscarinic acetylcholine receptor M1 (Homo sapiens) (UniProt P11229); experiment: Agonist activity at human muscarinic M1 receptor expressed in CHO-K1 cells at 10 uM by fluorimetric method relative to control; type: cell-based
T2 sequence (whole entry): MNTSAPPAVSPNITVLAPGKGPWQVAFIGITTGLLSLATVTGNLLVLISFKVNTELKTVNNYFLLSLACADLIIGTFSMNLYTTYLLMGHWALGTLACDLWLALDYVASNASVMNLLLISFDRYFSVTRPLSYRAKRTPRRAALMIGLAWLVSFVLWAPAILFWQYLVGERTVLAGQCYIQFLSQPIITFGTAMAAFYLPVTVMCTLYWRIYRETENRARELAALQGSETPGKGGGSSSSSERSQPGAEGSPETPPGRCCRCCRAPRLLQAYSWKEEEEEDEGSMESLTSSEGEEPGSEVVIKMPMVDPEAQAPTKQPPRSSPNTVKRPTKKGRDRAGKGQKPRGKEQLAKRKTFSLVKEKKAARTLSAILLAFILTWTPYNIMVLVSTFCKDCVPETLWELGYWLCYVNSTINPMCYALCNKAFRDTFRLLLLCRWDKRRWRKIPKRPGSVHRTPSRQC

[21] = target: Substance-P receptor (Homo sapiens) (UniProt P25103); experiment: Antagonist activity at human NK1 receptor expressed in U373 MG cells at 10 uM by fluorimetric method relative to control; type: cell-based; design: scale not given: the % may be the effect or the level left; settings: U-373MG ATCC
[22] = target: Mu-type opioid receptor (Homo sapiens) (UniProt P35372); experiment: Antagonist activity at human mu opioid receptor expressed in CHO-K1 cells at 10 uM after 10 mins by HTRF assay relative to control; type: cell-based; design: scale not given: the % may be the effect or the level left
[23] = target: 5-hydroxytryptamine receptor 2B (Homo sapiens) (UniProt P41595); experiment: Agonist activity at human 5-HT2B receptor expressed in CHO-K1 cells at 10 uM after 30 mins by HTRF assay relative to control; type: cell-based
Rattus norvegicus = experiment: Induction of long-term effect on estrus cycle in 4 day cycle of normally cycling female rat assessed as changes in vaginal smears at 12.5 mg/kg, po administered once daily for 8 days; type: functional, organism-based

Cannabinoid receptor 1 (Homo sapiens), sequence (P21554 whole entry): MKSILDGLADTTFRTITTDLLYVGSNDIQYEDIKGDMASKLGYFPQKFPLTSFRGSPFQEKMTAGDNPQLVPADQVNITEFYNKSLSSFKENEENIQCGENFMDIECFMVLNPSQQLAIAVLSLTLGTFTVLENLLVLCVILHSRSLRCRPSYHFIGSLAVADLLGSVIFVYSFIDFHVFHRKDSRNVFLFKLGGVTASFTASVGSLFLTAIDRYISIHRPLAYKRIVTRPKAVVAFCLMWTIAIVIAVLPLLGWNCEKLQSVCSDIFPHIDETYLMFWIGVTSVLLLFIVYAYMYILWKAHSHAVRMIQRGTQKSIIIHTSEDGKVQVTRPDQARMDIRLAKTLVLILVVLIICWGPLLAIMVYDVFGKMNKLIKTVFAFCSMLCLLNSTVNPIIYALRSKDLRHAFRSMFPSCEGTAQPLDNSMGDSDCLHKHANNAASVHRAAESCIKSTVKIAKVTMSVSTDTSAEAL
Melanocortin receptor 4 (Homo sapiens), sequence (P32245 whole entry): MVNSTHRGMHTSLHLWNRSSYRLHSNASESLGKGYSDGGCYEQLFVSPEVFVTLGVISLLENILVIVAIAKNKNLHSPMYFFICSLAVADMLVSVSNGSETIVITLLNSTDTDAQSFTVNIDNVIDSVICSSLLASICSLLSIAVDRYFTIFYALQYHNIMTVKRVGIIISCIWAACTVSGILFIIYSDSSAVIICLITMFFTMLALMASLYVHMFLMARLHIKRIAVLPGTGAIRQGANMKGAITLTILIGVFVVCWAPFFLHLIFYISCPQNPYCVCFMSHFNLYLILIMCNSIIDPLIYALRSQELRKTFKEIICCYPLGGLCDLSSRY
D(2) dopamine receptor (Homo sapiens), sequence (P14416 whole entry): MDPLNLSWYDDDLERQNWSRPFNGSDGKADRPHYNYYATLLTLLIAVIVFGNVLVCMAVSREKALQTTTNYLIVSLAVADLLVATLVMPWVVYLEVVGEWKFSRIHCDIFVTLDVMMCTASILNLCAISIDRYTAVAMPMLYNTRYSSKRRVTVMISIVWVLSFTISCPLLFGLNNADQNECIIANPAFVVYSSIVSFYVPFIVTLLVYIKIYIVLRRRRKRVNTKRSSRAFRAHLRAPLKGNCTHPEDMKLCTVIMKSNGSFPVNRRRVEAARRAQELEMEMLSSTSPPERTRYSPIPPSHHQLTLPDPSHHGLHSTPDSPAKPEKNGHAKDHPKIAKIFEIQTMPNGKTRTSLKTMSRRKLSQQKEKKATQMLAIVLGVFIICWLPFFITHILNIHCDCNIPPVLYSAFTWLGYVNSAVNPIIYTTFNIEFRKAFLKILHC
Thyrotropin receptor, sequence (P16473 whole entry): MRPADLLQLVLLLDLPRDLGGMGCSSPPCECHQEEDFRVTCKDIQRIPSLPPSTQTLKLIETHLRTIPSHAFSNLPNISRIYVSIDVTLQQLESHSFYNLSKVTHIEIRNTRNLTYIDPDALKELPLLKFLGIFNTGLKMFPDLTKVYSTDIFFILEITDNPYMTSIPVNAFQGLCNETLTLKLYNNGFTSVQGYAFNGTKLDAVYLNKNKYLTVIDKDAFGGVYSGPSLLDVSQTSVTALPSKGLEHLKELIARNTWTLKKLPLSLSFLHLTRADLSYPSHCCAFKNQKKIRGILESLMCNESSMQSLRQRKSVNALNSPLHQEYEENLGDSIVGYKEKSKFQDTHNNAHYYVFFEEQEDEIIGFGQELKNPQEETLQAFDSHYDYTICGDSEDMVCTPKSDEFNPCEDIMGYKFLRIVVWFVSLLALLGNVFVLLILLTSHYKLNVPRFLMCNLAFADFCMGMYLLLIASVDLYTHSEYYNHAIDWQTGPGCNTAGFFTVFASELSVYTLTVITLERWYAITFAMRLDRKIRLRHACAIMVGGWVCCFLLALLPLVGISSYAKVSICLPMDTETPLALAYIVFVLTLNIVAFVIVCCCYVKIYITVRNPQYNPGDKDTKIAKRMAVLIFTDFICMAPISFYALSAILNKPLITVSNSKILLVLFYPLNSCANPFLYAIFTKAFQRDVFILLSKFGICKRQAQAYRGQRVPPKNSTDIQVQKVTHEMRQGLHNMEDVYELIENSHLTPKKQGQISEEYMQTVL
Substance-P receptor (Homo sapiens), sequence (P25103 whole entry): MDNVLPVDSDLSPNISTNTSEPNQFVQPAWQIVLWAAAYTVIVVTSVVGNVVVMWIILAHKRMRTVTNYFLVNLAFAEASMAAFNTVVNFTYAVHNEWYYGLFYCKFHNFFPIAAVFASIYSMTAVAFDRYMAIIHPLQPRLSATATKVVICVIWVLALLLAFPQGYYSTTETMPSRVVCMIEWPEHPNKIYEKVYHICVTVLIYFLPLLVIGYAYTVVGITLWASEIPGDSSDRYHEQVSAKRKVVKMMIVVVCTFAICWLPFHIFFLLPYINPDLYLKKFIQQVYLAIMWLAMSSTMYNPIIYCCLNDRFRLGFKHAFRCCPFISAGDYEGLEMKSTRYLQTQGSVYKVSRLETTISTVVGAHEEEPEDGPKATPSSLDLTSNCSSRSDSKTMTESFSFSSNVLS
Cytochrome P450 3A4, sequence (P08684 whole entry): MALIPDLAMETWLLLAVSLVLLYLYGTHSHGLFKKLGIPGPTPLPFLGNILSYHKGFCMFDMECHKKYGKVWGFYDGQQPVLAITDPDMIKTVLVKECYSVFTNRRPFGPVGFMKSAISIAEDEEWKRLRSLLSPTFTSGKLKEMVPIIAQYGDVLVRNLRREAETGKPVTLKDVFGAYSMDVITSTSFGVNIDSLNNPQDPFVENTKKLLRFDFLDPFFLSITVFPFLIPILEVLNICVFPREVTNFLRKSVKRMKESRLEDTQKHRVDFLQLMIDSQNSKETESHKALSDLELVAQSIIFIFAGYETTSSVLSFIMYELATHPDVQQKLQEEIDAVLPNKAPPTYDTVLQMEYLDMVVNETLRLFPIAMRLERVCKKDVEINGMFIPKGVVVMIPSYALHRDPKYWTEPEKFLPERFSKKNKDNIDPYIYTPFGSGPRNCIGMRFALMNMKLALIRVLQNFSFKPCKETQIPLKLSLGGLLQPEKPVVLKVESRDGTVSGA
Cytochrome P450 2C9, sequence (P11712 whole entry): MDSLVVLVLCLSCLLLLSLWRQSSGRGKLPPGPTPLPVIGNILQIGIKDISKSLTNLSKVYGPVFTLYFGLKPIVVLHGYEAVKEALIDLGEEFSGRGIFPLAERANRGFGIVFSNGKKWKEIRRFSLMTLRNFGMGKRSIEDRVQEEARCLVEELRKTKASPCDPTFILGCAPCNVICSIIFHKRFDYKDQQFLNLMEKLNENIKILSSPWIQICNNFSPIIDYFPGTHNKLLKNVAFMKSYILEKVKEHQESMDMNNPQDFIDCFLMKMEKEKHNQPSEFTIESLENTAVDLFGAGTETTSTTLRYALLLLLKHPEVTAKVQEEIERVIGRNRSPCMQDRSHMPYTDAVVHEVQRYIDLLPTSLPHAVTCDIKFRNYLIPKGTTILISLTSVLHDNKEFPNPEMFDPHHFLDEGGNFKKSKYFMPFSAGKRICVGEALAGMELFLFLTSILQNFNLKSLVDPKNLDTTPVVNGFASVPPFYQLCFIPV
5-hydroxytryptamine receptor 2B (Homo sapiens), sequence (P41595 whole entry): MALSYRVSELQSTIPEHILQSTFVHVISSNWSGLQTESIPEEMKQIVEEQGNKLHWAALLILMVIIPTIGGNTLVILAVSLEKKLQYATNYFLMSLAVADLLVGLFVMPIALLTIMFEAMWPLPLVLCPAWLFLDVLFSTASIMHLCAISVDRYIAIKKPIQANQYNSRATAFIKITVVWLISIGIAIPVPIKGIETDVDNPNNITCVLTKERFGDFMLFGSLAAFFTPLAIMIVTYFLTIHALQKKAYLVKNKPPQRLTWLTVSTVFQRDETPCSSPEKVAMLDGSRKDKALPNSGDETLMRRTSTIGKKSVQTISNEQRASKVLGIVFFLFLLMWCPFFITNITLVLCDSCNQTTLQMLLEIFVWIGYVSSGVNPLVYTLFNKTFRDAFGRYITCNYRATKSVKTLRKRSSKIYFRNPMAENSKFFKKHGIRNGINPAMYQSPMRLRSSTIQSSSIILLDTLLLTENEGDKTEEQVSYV
Mu-type opioid receptor (Homo sapiens), sequence (P35372 whole entry): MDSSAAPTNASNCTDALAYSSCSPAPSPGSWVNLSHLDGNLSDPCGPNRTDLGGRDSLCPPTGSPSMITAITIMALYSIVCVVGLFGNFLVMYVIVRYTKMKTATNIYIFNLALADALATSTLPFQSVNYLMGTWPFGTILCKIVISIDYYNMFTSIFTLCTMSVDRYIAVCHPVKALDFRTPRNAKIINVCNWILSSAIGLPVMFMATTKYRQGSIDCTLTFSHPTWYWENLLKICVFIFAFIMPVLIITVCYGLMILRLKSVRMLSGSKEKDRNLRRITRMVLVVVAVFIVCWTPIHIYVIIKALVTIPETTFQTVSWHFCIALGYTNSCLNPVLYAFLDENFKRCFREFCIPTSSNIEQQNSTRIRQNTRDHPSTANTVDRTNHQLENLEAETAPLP
Beta-2 adrenergic receptor (Homo sapiens), sequence (P07550 whole entry, looked up): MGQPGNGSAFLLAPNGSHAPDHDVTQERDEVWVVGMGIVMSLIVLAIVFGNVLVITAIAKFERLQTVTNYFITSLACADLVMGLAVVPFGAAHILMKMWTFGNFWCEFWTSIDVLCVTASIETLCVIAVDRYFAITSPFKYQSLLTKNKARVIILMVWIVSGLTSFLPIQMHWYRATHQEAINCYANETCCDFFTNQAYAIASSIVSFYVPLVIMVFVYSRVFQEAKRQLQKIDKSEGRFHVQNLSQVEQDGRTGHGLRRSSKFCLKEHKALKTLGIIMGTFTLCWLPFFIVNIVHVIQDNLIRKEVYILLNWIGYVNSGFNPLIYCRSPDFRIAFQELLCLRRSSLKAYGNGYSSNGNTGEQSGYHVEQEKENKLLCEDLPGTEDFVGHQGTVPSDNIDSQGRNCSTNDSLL

Row | IC50 (Thyrotropin receptor) | Stability [2] | efflux ratio at 2 h, 2 µM [3] | CLH [4] | CLH [5] | Fh at 1 µM [6] | IC50 (Cytochrome P450 2C8) | IC50 (Cytochrome P450 2C9) | IC50 (Cytochrome P450 3A4) | AUC/dose [7] | Cmax/dose [8] | Vd [9] | Cmax/dose [10] | bioavailability [11] | Activity [12] | Activity [13] | Activity [14] | Activity [15] | Activity [16] | SMILES | IC50 [1] | further results
1 | 2.3 µM | Stable | 1.3 | 3.3 mL/min/kg | 18.3 mL/min/kg | 74% | 0.7 µM | 4.4 µM | > 20 µM | 9.4 kg·h/L | 0.97 kg/L | 1.8 L/kg | 0.24 kg/L | 83% | < 70% | < 70% | < 70% | < 70% | < 70% | O=C(Nc1ccc(Oc2ccc(F)cc2)cc1)N1CCc2ncccc2[C@@H]1c1ccc(Cl)cc1 | 3 µM | Activity [17]: < 70%; Activity [18]: < 70%; Activity [19]: < 70%; Activity [20]: < 70%; Activity [21]: < 70%; Activity [22]: < 70%; Activity [23]: < 70%; Activity (Rattus norvegicus): Active
2 | 24 µM | Stable | 1.1 | 3.3 mL/min/kg | 21.7 mL/min/kg | 68% | 3.1 µM | 9.9 µM | > 20 µM | 2.5 kg·h/L | 0.28 kg/L | 16 L/kg | 0.066 kg/L | 108% | < 70% | < 70% | < 70% | < 70% | < 70% | O=C(Nc1cnc(Oc2ccc(F)cc2)nc1)N1CCc2ncccc2[C@@H]1c1ccc(F)cc1 [BAY-899] | 10.6 µM | Activity [17]: < 70%; Activity [18]: < 70%; Activity [19]: < 70%; Activity [20]: < 70%; Activity [21]: < 70%; Activity [22]: < 70%; Activity [23]: < 70%; Activity (Rattus norvegicus): Active
